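Five compound concentrations were applied to cells in 96-well plates for 48 hours; endpoints were derived by simple linear interpolation of the resulting dose-response curve. The concentration for 50% growth inhibition is given as GI50.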 Activity calls are given as the source filed them. Rule as the data show it: active = GI50 up to about 1.1 µM and inactive = higher.
What was measured:
Assay in all cases: NCI anticancer screen, dose series, 48 h
HCC 2998 = test system: HCC 2998
SR = test system: SR
NCI-H522 = test system: NCI-H522
ACHN = test system: ACHN
OVCAR-5 = test system: OVCAR-5
Malme-3M = test system: Malme-3M
CCRF-CEM = test system: CCRF-CEM
M14 = test system: M14
U-251 = test system: U-251
HCT-15 = test system: HCT-15
SW-620 = test system: SW-620
UO-31 = test system: UO-31
MDA-MB-231 = test system: MDA-MB-231
TK-10 = test system: TK-10
EKVX = test system: EKVX
NCI/ADR-RES = test system: NCI/ADR-RES
SK-MEL-2 = test system: SK-MEL-2
OVCAR-8 = test system: OVCAR-8
HCT-116 = test system: HCT-116
SN12C = test system: SN12C

| SMILES | GI50 (HCC 2998) | GI50 (SR) | GI50 (NCI-H522) | GI50 (ACHN) | GI50 (OVCAR-5) | GI50 (Malme-3M) | GI50 (CCRF-CEM) | GI50 (M14) | GI50 (U-251) | GI50 (HCT-15) [µM] | GI50 (SW-620) | GI50 (UO-31) | GI50 (MDA-MB-231) | GI50 (TK-10) | GI50 (EKVX) | GI50 (NCI/ADR-RES) | GI50 (SK-MEL-2) | GI50 (OVCAR-8) | GI50 (HCT-116) | GI50 (SN12C) |
| --- | --- | --- | --- | --- | --- | --- | --- | --- | --- | --- | --- | --- | --- | --- | --- | --- | --- | --- | --- | --- |
| Nc1n[nH]c(Nc2ccc(Cl)cc2)c1P(=O)(c1ccccc1)c1ccccc1 | 24.7 µM (inactive) | 53.1 µM (inactive) | 20.2 µM (inactive) | 34.4 µM (inactive) | 18.8 µM (inactive) | 21.5 µM (inactive) | 28.6 µM (inactive) | 21.3 µM (inactive) | 30.3 µM (inactive) | 28.6 | 34.3 µM (inactive) | 29.4 µM (inactive) | 19.1 µM (inactive) | 30.1 µM (inactive) | 35.2 µM (inactive) | 20.7 µM (inactive) | 19.9 µM (inactive) | 18.4 µM (inactive) | – | – |
| O=C(NC(C(F)(F)F)(C(F)(F)F)P(=O)(Cc1ccccc1)Cc1ccccc1)C(C(F)(F)F)C(F)(F)F | 27.5 µM (inactive) | 18.7 µM (inactive) | 26.2 µM (inactive) | 19.7 µM (inactive) | 22.3 µM (inactive) | 19.1 µM (inactive) | 29.6 µM (inactive) | 18.4 µM (inactive) | 17.6 µM (inactive) | 29.4 | 44.4 µM (inactive) | – | 19.8 µM (inactive) | 21.8 µM (inactive) | 26.4 µM (inactive) | 17.9 µM (inactive) | 26.4 µM (inactive) | 22.3 µM (inactive) | 17.3 µM (inactive) | 17.7 µM (inactive) |
| Cc1c(-c2ccccc2)c(C#N)c2nnn(-c3cccc(Cl)c3)c(=O)n12 | 78.7 µM (inactive) | 12.6 µM (inactive) | 47.8 µM (inactive) | 53.2 µM (inactive) | > 100 µM (inactive) | 87.5 µM (inactive) | 28.1 µM (inactive) | – | 68.4 µM (inactive) | 41.1 | 46.8 µM (inactive) | – | 25.1 µM (inactive) | > 100 µM (inactive) | 33.1 µM (inactive) | > 100 µM (inactive) | 27.7 µM (inactive) | 53.5 µM (inactive) | 70 µM (inactive) | 71.8 µM (inactive) |
| CC#CC#C/C(=C/C=CC(=O)OC)SC | > 100 µM (inactive) | > 10 µM (inactive) | > 100 µM (inactive) | – | > 100 µM (inactive) | > 100 µM (inactive) | > 10 µM (inactive) | > 100 µM (inactive) | > 100 µM (inactive) | > 100 | > 100 µM (inactive) | – | > 100 µM (inactive) | > 100 µM (inactive) | > 100 µM (inactive) | > 100 µM (inactive) | > 100 µM (inactive) | > 100 µM (inactive) | > 100 µM (inactive) | > 100 µM (inactive) |
| O=C(Nc1ccccc1)N1CCN(C(=O)Nc2ccccc2)C1=S | > 100 µM (inactive) | > 100 µM (inactive) | 90.2 µM (inactive) | 8.57 µM (inactive) | – | > 100 µM (inactive) | 97.7 µM (inactive) | 56.4 µM (inactive) | > 100 µM (inactive) | 88.5 | > 100 µM (inactive) | 23.7 µM (inactive) | > 100 µM (inactive) | 38.5 µM (inactive) | > 100 µM (inactive) | 41.9 µM (inactive) | > 100 µM (inactive) | 34.6 µM (inactive) | 47.6 µM (inactive) | 59.3 µM (inactive) |
| C/C1=C\[C@@H](O)C(=O)/C=C/C=C\c2csc(n2)[C@@H](C)NC(=O)C[C@@]2(CC1)[S+]([O-])SC(=O)[C@]2(C)O (stereo not given in full) [LEINAMYCIN] | 0.184 µM (active) | 0.00327 µM (active) | 0.00188 µM (active) | – | 0.104 µM (active) | 0.00656 µM (active) | 0.00105 µM (active) | 0.00692 µM (active) | 0.0454 µM (active) | 0.0134 | 0.00204 µM (active) | 0.0308 µM (active) | 0.0321 µM (active) | 0.0266 µM (active) | 0.261 µM (active) | 0.0137 µM (active) | 0.00601 µM (active) | 0.0174 µM (active) | – | 0.0203 µM (active) |

Source: ChEMBL document CHEMBL1201862, “PubChem BioAssay data set” (2004)
